Test: gradient 5% acetonitrile 3 min, to 50% in 2 min, to 85% in 15 min, held 3 min, 100 µL/min
Settings: column: Zorbax Extend-C18 2.1 x 50 mm; eluents: water / acetonitrile, 0.1% formic acid
In short: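 In both positive and negative ionization mode, a quadrupole time-of-flight mass spectrometer coupled to HPLC analyzed pure standards run in mixtures of ~100 molecules. The Zorbax Extend-C18 column (2.1 × 50 mm, 1.8 μm) was operated at 100 μL/min with water and acetonitrile, each containing 0.1% formic acid. The dead volume was 40 μL and the dwell volume 900 μL. Retention time came from adduct peaks that were computationally picked and individually inspected by hand.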

Row | Structure (SMILES) | RP-LC retention time [s]
1 | COc1ccc(Br)c(-c2nnc(C)o2)c1 | 797
2 | CN1CCN(C(CNC(=O)c2ccc(Br)o2)c2ccc(N(C)C)cc2)CC1 (stereo not given) | 566
3 | CCOC(=O)c1cccc(NC(=O)N2CCN(c3nc4ccccc4n3C)CC2)c1 | 644
4 | O=c1c(NC2CCCC2)nc2ccncc2n1Cc1ccccc1 | 682
5 | CCN(CC)C(=O)c1cc2c(s1)CCC(C(=O)NCc1cccnc1)C2 (stereo not given) | 528
6 | CCOC(=O)CCC(=O)N(Cc1ccsc1)CC(F)(F)F | 839
7 | COc1ccc(-c2cn3ccn(-c4cccc(F)c4)c(=O)c3n2)cc1OC | 746
8 | CCc1ccccc1NC(=O)Cn1nc2n(c1=O)CCCC2 | 674
9 | Cc1cc(C(=O)NC2CC2)no1 | 628
10 | O=C(CCCCn1c(=O)c2ccccc2n(Cc2ccccc2)c1=O)NCc1cccs1 | 847
11 | CNC(=O)c1cc(C)nc2ccc(F)cc12 | 580
12 | O=C(C1CC1)N1CCc2sc(S(=O)(=O)Nc3ccc(Cl)cc3F)cc2C1 | 887
13 | CS(=O)(=O)N1CCCC1C(=O)N1CCCC1 (stereo not given) | 584
14 | Cn1cc(Cl)c(C(=O)N2CCCC2c2cccc(F)c2)n1 (stereo not given) | 807
15 | COCCCNC(=O)C1CCCN(C(=O)c2cc(C)cc(C)c2)C1 (stereo not given) | 700
16 | O=C(Nc1ccnn1Cc1ccccc1)c1cc(=O)c2cc(Br)ccc2o1 | 907
17 | Cc1ccc(Cn2c(CN3CCC(C(=O)NCc4ccccn4)CC3)cc3ccccc32)cc1 | 655
18 | CC1CCN(c2cncnc2-n2cc(NC(=O)Cc3cccs3)cn2)CC1 | 740
19 | CCCCN(CC)c1ccc(C(=O)O)cc1NC(=O)c1cccs1 | 1070
20 | Cc1noc(C)c1C1CCCN1C(=O)c1ccc2c(c1)OCO2 (stereo not given) | 722
21 | COc1ccc(-c2ncc3c(=O)n(CC(=O)Nc4ccc(OC)c(OC)c4)cnc3n2)cc1 | 750
22 | Cc1ccc(CNC(=O)C2CCN(S(C)(=O)=O)c3ccccc3O2)cc1 (stereo not given) | 854
23 | O=C(Cn1ncc2c(c1=O)N(CC1CC1)C(=O)CS2)Nc1cccc(C(F)(F)F)c1 | 869

Row | Structure (SMILES) | RP-LC retention time [s]
24 | Cc1ccc(C)c(NC(=O)c2cc(C)n3nc(C)cc3n2)c1 | 1090
25 | Cc1ccc(CN2C(=O)COC[C@H]2C(=O)NC2CC2)cc1 | 658
26 | CC(C)CC(=O)Nc1ccc(S(=O)(=O)N2CCCC2c2nc(-c3ccc(F)cc3)no2)cc1 (stereo not given) | 1080
27 | O=C1CCC(NC(=O)OCc2ccccc2)(C(=O)OCc2ccccc2)O1 (stereo not given) | 830
28 | CCn1nc(C)n2cc(S(=O)(=O)NCc3ccc(Cl)cc3)cc2c1=O | 904
29 | Cc1ccc(NC(=O)N2CCC(N3CCN(Cc4ccc(F)cc4)C(=O)C3=O)CC2)cc1 | 754
30 | CCC1(O)CCOC2(CCN(Cc3ccc(OC)c(C)c3)CC2)C1 (stereo not given) | 575
31 | CCCN1CCN(C(=O)CN2CCN(Cc3ccccc3)C2=O)CC1 | 578
32 | Cc1ccc(C)c(-c2cc3c(=O)n(Cc4nc(-c5cccc(Br)c5)no4)ncn3n2)c1 | 1340
33 | Cc1ccc(C(=O)N2CCC(CCOCC3CC3)CC2)cn1 | 660
34 | C[C@H]1CC[C@]2(NC1)O[C@H]1C[C@H]3[C@@H]4CC[C@H]5C[C@@H](O)CC[C@]5(C)[C@H]4CC[C@]3(C)[C@H]1[C@@H]2C | 776
35 | CN1C(=O)Cc2cc(S(=O)(=O)CCC(=O)N3CCN(c4ccccn4)CC3)ccc21 | 902
36 | O=C(C1CCCO1)N1CCC(OCc2nc(-c3ccncc3)no2)CC1 (stereo not given) | 585
37 | O=C(Cn1c(=O)c2cc(C3CC3)nn2c2ncccc21)Nc1cc(F)cc(F)c1 | 815
38 | O=C(Cc1cccs1)N1CCc2cc(-c3csc(C4CC4)n3)ccc21 | 1120
39 | O=C(C1CCOC1)N1CCCn2nc(-c3cccs3)cc2C1 (stereo not given) | 678
40 | COc1ccc2c(c1)OC1(C)CC2C(S(=O)(=O)c2ccc(C(C)C)cc2)C(=O)N1C (stereo not given) | 1120
41 | CC(C)n1c(-c2cccc(C(=O)NCc3ccco3)c2)nc2cccnc21 | 751
42 | CCn1cc(-c2nc(C)c(C(=O)NCc3ccc(F)cc3)s2)c2cccnc21 | 902
43 | c1ccc(-c2nc3nccc(-c4ccncc4)n3n2)cc1 | 699
44 | COc1ccc(OCc2nn3c(-c4ccoc4C)nnc3s2)cc1 | 900
45 | Cc1ccc(NC(=O)Cn2ncc3c(c2=O)N(CC2CC2)C(=O)CS3)c(C)c1 | 782
46 | COC(=O)c1cn(C(=O)c2ccccc2)c2ccccc12 | 1090

Row | Structure (SMILES) | RP-LC retention time [s]
47 | O=[N+]([O-])c1cccnc1Oc1cc(Cl)c(Cl)cc1Cl | 1220
48 | CCN1c2ccc(C)cc2C(=O)NC12CCN(C(=O)c1ccc(Cl)cc1)CC2 | 858
49 | O=C(Nc1cccnc1)c1c2c(nc3ccccc13)C(=O)N(C1CCCCC1)C2 | 669
50 | Cc1cccc2c1cnn2C(=O)CCC(=O)N1CCN(c2ccccn2)CC1 | 632
51 | CCN1CCC(CCNC(=O)c2cc3c(s2)N(CC)CCCC3)CC1 | 685
52 | Cc1nc(-c2ccc(C(=O)N3CCC(C)CC3)cc2)no1 | 840
53 | CCOC(=O)CC1(NC(=O)N2CCCn3nc(-c4cccnc4)cc3C2)CCCCC1 | 643
54 | O=C(NCC1CC1)c1cn(-c2ccc(-c3nc(C4CC4)no3)cn2)cn1 | 843
55 | O=C(NC1CC1)C1CCN(c2cnn(Cc3ccccc3)c(=O)c2)CC1 | 681
56 | CCC1Oc2ccc(S(=O)(=O)N3CCC(C(=O)N4CCCC4)CC3)cc2NC1=O (stereo not given) | 730
57 | Cc1cnc(C2CC2)n1C1CCCN(C(=O)NC(C)C)C1 (stereo not given) | 587
58 | O=C(Cc1cccc(F)c1)N1CCN(c2cc(-c3cccs3)[nH]n2)CC1 | 798
59 | CN(C)c1ccc(-c2nc3cnccn3c2Nc2cccc(C(F)(F)F)c2)cc1 | 887
60 | Cc1nc(-c2noc(-c3ccncc3)n2)cn1CC(=O)NC1CCCCC1 | 896
61 | CCOc1ccc(-c2noc(CN3N=NC4C(=O)N(c5cccc(SC)c5)C(=O)C43)n2)cc1OC (stereo not given) | 984
62 | Cc1cc(C)cc(N2C(=O)CC(N3CCC(C(N)=O)CC3)C2=O)c1 (stereo not given) | 562
63 | CCN1c2ccc(F)cc2C(=O)NC12CCN(C(=O)Cc1ccc(C)cc1)CC2 | 853
64 | CCN1CCC2(CC1)OC(=O)C(C)=C2C(=O)NCCCc1ccccc1 | 654
65 | CCCCn1cnc2c(-c3ccccc3)cn(CC(=O)Nc3ccccc3)c2c1=O | 1030
66 | O=C(NCc1ccc(Br)cc1)C1CCCN(C(=O)c2cc(-c3ccncc3)n[nH]2)C1 (stereo not given) | 623
67 | COc1ccc(C2c3[nH]c4ccccc4c3CCN2C(=O)c2cccnc2)cc1 (stereo not given) | 887
68 | CCOC(=O)CNC(=O)c1cn(CC)nc1S(=O)(=O)N1CCN(c2ccccc2OCC)CC1 | 962
69 | Cc1ccc(N2CC(c3noc(-c4cc(F)ccc4F)n3)CC2=O)cc1 (stereo not given) | 1000

Row | Structure (SMILES) | RP-LC retention time [s]
70 | CC(C)n1c(=O)oc2cc(-c3noc(-c4ccc(Br)cc4)n3)ccc21 | 1350
71 | O=C(NCC(c1cccnc1)N1CCc2ccccc21)C(=O)Nc1ccc2c(c1)OCCO2 (stereo not given) | 730
72 | CCOC(=O)C(CC)n1nc2nc(Nc3ccc(C)c(F)c3)cc(C)n2c1=O (stereo not given) | 1200
73 | CC(=O)N(Cc1nn(C)c2c1CN(S(=O)(=O)c1ccccc1)CC2)c1ccccc1 | 766
74 | CC1CCN(c2cc(-n3cnc(C(=O)N4CCN(c5ncccn5)CC4)c3)ncn2)CC1 | 880
75 | O=C1NCCCCCCN(C(=O)Nc2ccccc2F)[C@H]2CCCC[C@@H]12 | 846
76 | COc1ccc(F)cc1S(=O)(=O)N1CCCC(Cn2c(C)nc3cccnc32)C1 (stereo not given) | 680
77 | CCCS(=O)(=O)N1CC(n2cc(C(=O)N(C)C)nn2)C1 | 626
78 | CCC(=O)N1CCN(Cc2nc3cc(NC(=O)c4cccs4)ccc3n2C)CC1 | 602
79 | CCc1nnc2c(=O)n(CC(=O)NCc3cccc(F)c3)c3cccnc3n12 | 710
80 | COc1ccc(OC)c(NC(=O)CN2C(=O)CCc3cc(Br)ccc32)c1 | 962
81 | CCn1cc(-c2nc(C(=O)NCc3ccccc3F)cs2)c2cccnc21 | 987
82 | COc1ccc(CNC2=NCCNC23CCN(S(=O)(=O)c2ccc(C(C)C)cc2)CC3)cc1 | 814
83 | COc1cccc(-c2cc3c(=O)n(Cc4nc(-c5ccccc5)no4)ccn3n2)c1 | 1000
84 | COc1ccccc1N1CCN(c2cc(SCC(=O)Nc3ccc(C#N)cc3)ncn2)CC1 | 890
85 | CCOC(=O)CNC(=O)Nc1ccc2c(c1)oc(=O)n2CC | 659
86 | COc1cccc(-c2noc(C3CCCN3C(=O)Nc3ccc(C)cc3)n2)c1 (stereo not given) | 983
87 | CS(=O)(=O)N1CCC(C(=O)NC2CCCCC2)Oc2ccc(Cl)cc21 (stereo not given) | 922
88 | Cc1occc1C(=O)N1CCCn2ccnc2C1c1cnn(C)c1 (stereo not given) | 573
89 | COc1ccc(-c2nc(Cn3ccn4nc(-c5ccc(F)cc5)cc4c3=O)c(C)o2)cc1 | 670
90 | O=S(=O)(Nc1cc(F)cc(F)c1)c1ccc(-c2nnc(C3CCC3)o2)o1 | 930
